Laboratory results: publication PMC7555119, “Characterization of Novel Synthetic Polyphenols: Validation of Antioxidant and Vasculoprotective Activities” (Antioxidants, 2020)
≈ marks a conversion by molar mass, not a printed value. Read-outs that look alike come from different tables or passages of the source.

Assays:
[1] = Oxygen radical absorbance capacity (ORAC) assay
Protocol: The ORAC assay was performed following Ou et al., as modified by Garcés-Rimón et al.. All samples and reagents were dissolved in phosphate buffer (75 mM; pH 7.4). […] The fluorescence was recorded at 40 °C every 55 s for 95 min using a fluorimeter (SpectraMax M2; Molecular Devices, California, USA), with excitation and emission wavelengths of 480 and 520 nm, respectively. All samples were tested in triplicate. ORAC values were expressed as μmol of Trolox equivalents (TE)/μmol of pure compound.

[2] = Stability in aqueous media (H2O/acetonitrile 80:20, HPLC-MS); assay type: physicochemical; conditions: for Aqueous Stability (%): remaining pure compound (HPLC) after two months at room temperature in aqueous solution (+20% acetonitrile); for stability in aqueous media: H2O/acetonitrile (80:20%), room temperature, checked for 60 days
Source text: The solutions were checked by HPLC-MS at regular intervals of time for 60 days. […] The rest of the compounds suffered progressive degradation, with complete disappearance from the solution after 10 or 20 days. The most unstable polyphenol derivatives were 4 and 10 (Figure S1), having both two p-dihydroxy substitutions in the phenyl rings, which points to the rapid and easy oxidation to the p-hydroquinone. From the four compounds with three phenyl rings, only one was stable in aqueous solution (17).

[3] = ABTS radical cation scavenging assay
Protocol: The 2,2′-azino-bis (3-ethylbenzothiazoline-6-sulfonic acid) diammonium salt (ABTS) assay was performed according to Re et al. and modified by Oki et al. for its use in microplates. Samples were diluted in methanol. An ABTS^•+ stock solution was prepared by adding 44 μL of potassium persulfate (140 mmol/L) to a 2.5 mL ABTS^•+ aqueous solution (7 mmol/L). The working solution of the radical ABTS^+ was prepared by diluting the stock solution 1:75 (v/v) in a sodium phosphate buffer (5 mmol/L, pH 7.4) to obtain an absorbance value of 0.7±0.02 at 734 nm. Samples (30 μL) were added to 270 μL of the working solution of ABTS^•+ in a microplate. Absorbance was measured at 734 nm and 30 °C for 20 min, every 5 min in a Synergy HT plate spectrophotometer (Biotek Instruments, Winoosky, VT, USA). A calibration curve was made with Trolox (20–250 μM). All samples were analyzed in triplicate. Results were expressed in μmol TE/μmol of pure compound, as for the ORAC assays.

[4] = test system: Saccharomyces cerevisiae strain BY4741; experiment: In vivo antioxidant capacity in stressed yeasts (growth recovery, survivors); assay type: cell-based
Protocol: Saccharomyces cerevisiae haploid strain BY4741 was used as described previously. Briefly, 20 μL of glycerol stock culture was revived in 5ml of YPD medium (1% yeast extract, 2% bacteriological peptone and 2% dextrose) at 28 °C, with shaking (210 rpm). Fifty microliters of 20-h-old culture was used to inoculate fresh 5ml YPD (control medium) or 5 mL of oxidative stress medium (YPOxD: YPOxD; 1% yeast extract, 2% bacteriological peptone, 1% dextrose and 3% H2O2). Stress (and control) was conducted during 16h at 28 °C, with shaking (220 rpm).
Growth rate was determined from growth kinetics using the BioScreen C plate-reader system (OY Growth Curves Ab Ldt., Helsinki, Finland). Stressed yeast cultures (16 h old) were used to inoculate 200 µl of fresh media to an initial OD595 of 0.05–0.07, being distributed in 100-well honeycomb plates (Oy Growth Curves) in triplicate per each condition (each different dose of each compound). Plates were then incubated at 28 °C for 72h, with shaking (High force), taking OD measurement each 15 min in the Bioscreen C. Maximum growth rate (μmax) and biomass production (carrying capacity) were determined in R using ‘Growthcurver’ package version 0.3 [24]. Growth curves were constructed in EXCEL, represented as mean ± SEM (standard error of mean). […] In addition, to measure survival after oxidative stress and antioxidant effectiveness of each compound, yeast cells from each challenge were serially diluted in 96-well plates, and each dilution was spotted (with a 8 × 6 stainless steel replica platter from SIGMA) in triplicate to determine viable colonies after 24–48 h at 28 °C. Survivors (mean ± SEM) were compared between treatments with one-way ANOVA, Fisher’s LSD test, with alpha at 0.05 for significance.

[5] = Aqueous thermodynamic solubility in H2O (UV); assay type: physicochemical; conditions: water, thermodynamic from solid
Source text: 4) Log P and aqueous solubility of selected compounds.
Table S2. Theoretical Log P values and aqueous thermodynamic solubility measured for
Comp `Chemical Structure MW LogP Calc Aqueous Solubility a
a Thermodynamic solubility in H 2O (UV). […]

SMILES | ORAC [1] | Aqueous Stability (%) [2] | melting point | other results
O=C(Cc1cc(O)ccc1O)Nc1ccc(O)c(O)c1 [Compound 6, 2-(2′,5′-Dihydroxyphenyl)-N-(3,4-dihydroxyphenyl)acetamide] | 9.4 ± 0.4 µmol of trolox/µmol of pure compound | 0% | 180 °C (dec.) | 
O=C(Nc1ccc(O)cc1O)Nc1cc(O)ccc1O [Compound 11, N-(2,4-Dihydroxyphenyl)-N′-(2′,5′-dihydroxyphenyl)urea] | 6.6 ± 0.1 µmol of trolox/µmol of pure compound |  | > 155 °C (dec.) | 
O=c1c(O)c(-c2ccc(O)c(O)c2)oc2cc(O)cc(O)c12 [Quercetin, reference compound] | 6.61 ± 0.27 µmol of trolox/µmol of pure co |  |  | ABTS [3]: 5.28 ± 0.29 µmol of trolox/µmol of pure co
O=C(Cc1cc(O)ccc1O)Nc1cc(O)ccc1O [Compound 4, N-(2,5-Dihydroxyphenyl)-2-(2′,5′-dihydroxyphenyl)acetamide] | 14.4 ± 0.2 µmol of trolox/µmol of pure compound | 0% | 204 to 207 °C (dec.) | stability in aqueous media [2]: most unstable
O=C(Nc1cc(O)ccc1O)Nc1cc(O)ccc1O [Compound 16, N,N′-bis(2,5-Dihydroxyphenyl)urea] | 11.9 ± 0.4 µmol of trolox/µmol of pure compound | 0% | 109 °C (dec.) | 
Oc1cc(O)c2c(c1)O[C@H](c1ccc(O)c(O)c1)[C@H](O)C2 [(-)-Epicatechin, reference compound] | 10.03 ± 5.92 µmol of trolox/µmol of pure co |  |  | ABTS [3]: 5.90 ± 0.73 µmol of trolox/µmol of pure co
O=C(Nc1ccc(O)c(O)c1)Nc1cc(O)ccc1O [Compound 13, N-(2,5-Dihydroxyphenyl)-N′-(3′,4′-dihydroxyphenyl)urea] | 7.8 ± 0.3 µmol of trolox/µmol of pure compound |  | 141 to 143 °C | 
OCCc1ccc(O)c(O)c1 [Hydroxytyrosol, reference compound] | 6.33 ± 0.08 µmol of trolox/µmol of pure co |  |  | ABTS [3]: 0.97 ± 0.05 µmol of trolox/µmol of pure co
O=C(Cc1ccc(O)cc1O)Nc1ccc(O)cc1O [Compound 5, N-(2,4-Dihydroxyphenyl)-2-(2′,4′-dihydroxyphenyl)acetamide] | 5.2 ± 0.4 µmol of trolox/µmol of pure compound |  | 75 to 78 °C | 
O=C(Nc1cc(O)ccc1O)N(Cc1cc(O)ccc1O)c1ccc(O)cc1 [Compound 18, N-(2′,5′-Dihydroxybenzyl)-N′-(2″,5″-dihydroxiphenyl)-N-(4-hydroxyphenyl)urea] | 15.3 ± 0.7 µmol of trolox/µmol of pure compound | 0% | 114 to 115 °C | 
Oc1cc(O)c2c(c1)OC(c1ccc(O)c(O)c1)C(O)C2 [D-Catechin, reference compound] | 8.59 ± 0.84 µmol of trolox/µmol of pure co |  |  | ABTS [3]: 3.17 ± 1.22 µmol of trolox/µmol of pure co
O=C(Nc1ccc(O)cc1)Nc1ccc(O)cc1 [Compound 15, N,N′-bis(4-Hydroxyphenyl)urea] | 8.9 ± 0.4 µmol of trolox/µmol of pure compound | 90% | 245 °C | ABTS [3]: 1.17 ± 0.01 µmol of trolox/µmol of pure compound; stability in aqueous media [2]: sufficiently stable; growth rate (r) recovery of stressed yeast ([4]; H2O2-stressed BY4741, doses 2, 20 and 40 μg): dose-related antioxidant effect; carrying capacity (k) recovery of stressed yeast ([4]; H2O2-stressed BY4741, each dose tested): able to recover the carrying capacity of yeast cells similarly as control antioxidants; carrying capacity (k) recovery of stressed yeast, 2 μg dose ([4]; low 2 μg dose): slightly better than the other two polyphenols and resveratrol; solubility [5]: 62.6 ± 0.1 µg/mL (≈ 256 µM)
O=C(Nc1ccc(O)cc1)Nc1ccc(O)c(O)c1 [Compound 14, N-(3,4-Dihydroxyphenyl)-N′-(4′-hydroxyphenyl)urea] | 9.6 ± 0.1 µmol of trolox/µmol of pure compound | 0% | 184 to 187 °C | 
O=C(Cc1cc(O)ccc1O)Nc1ccc(O)cc1O [Compound 1, N-(2,4-Dihydroxyphenyl)-2-(2′,5′-dihydroxyphenyl)acetamide] | 11.0 ± 0.4 µmol of trolox/µmol of pure compound | 2% | 178 to 180 °C | 
O=C(Cc1ccc(O)cc1O)Nc1cc(O)ccc1O [Compound 2, 2-(2′,4′-Dihydroxyphenyl)-N-(2,5-dihydroxyphenyl)acetamide] | 8.1 ± 0.1 µmol of trolox/µmol of pure compound |  |  | 
O=C(Nc1ccc(O)cc1)Nc1cc(O)ccc1O [Compound 12, N-(2,5-Dihydroxyphenyl)-N′-(4′-hydroxyphenyl)urea] | 12.5 ± 0.7 µmol of trolox/µmol of pure compound | 0% | 180 to 182 °C | 
O=C(Cc1cc(O)ccc1O)N(c1ccc(O)cc1)c1ccc(O)cc1 [Compound 9, 2-(2′,5′-Dihydroxyphenyl)-N,N-bis(4-hydroxyphenyl)acetamide] | 29.5 ± 0.5 µmol of trolox/µmol of pure compound | 0% | 124 to 126 °C | ORAC ([1]; TE: Trolox Equivalents): above 25 TE
O=C(Cc1cc(O)ccc1O)N(Cc1cc(O)ccc1O)c1ccc(O)cc1 [Compound 10, N-(2′,5′-Dihydroxybenzyl)-2-(2″,5″-dihydroxyphenyl)-N-(4-hydroxyphenyl) acetamide] | 27.6 ± 0.5 µmol of trolox/µmol of pure compound | 0% | 114 to 116 °C | ORAC ([1]; TE: Trolox Equivalents): above 25 TE; stability in aqueous media [2]: most unstable
